Experimental data: patent US12227482B2, “Compounds and compositions for the treatment of cancer” (The Regents of the University of California, priority 2016, dated 2025)

Experiments:
Type in all cases: cell-based
[1] = system: LOX cells; assay: Cell viability (CellTiter-Glo ATP content) in LOX cells; details: LOX, 72 h, 72 hours treatment, cell survival by CellTiter-Glo, 2% fetal bovine serum
Procedure, shortened: (§1)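 Cells plated at 5,000 per well in antibiotic-free RPMI with 2% FBS, treated next day in triplicate with increasing compound doses (final DMSO 0.5%) for 72 hours. Viability read as ATP content by CellTiter-Glo luminescence; percent survival relative to vehicle control set as 100%.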

[2] = system: MelJuSo cells; assay: Cell viability (CellTiter-Glo ATP content) in MelJuSo cells; details: Homo sapiens, MEL-JUSO, 72 hours treatment, cell survival by CellTiter-Glo, 2% fetal bovine serum
Procedure, shortened: as §1

[3] = system: A549 cells; assay: Cell viability (CellTiter-Glo ATP content) in A549 cells; details: Homo sapiens, A549, 72 h, 72 hours treatment, cell survival by CellTiter-Glo, 2% fetal bovine serum
Procedure, shortened: as §1

CCCCC1C(c2ccc(F)cc2)=NN(c2ccccc2)C1(C)C(=O)N(CCO)Cc1ccccc1 (stereo not drawn) [Compound 78, N-benzyl-4-butyl-3-(4-fluorophenyl)-N-(2-hydroxyethyl)-5-methyl-1-phenyl-4,5-dihydro-1H-pyrazole-5-carboxamide]
IC50 [1]: > 2 µM
IC50 [2]: > 2 µM
IC50 [3]: > 2 µM

CCCCC1C(c2ccc(F)cc2)=NN(c2ccccc2)C1(C)C(=O)NCCS(C)(=O)=O (stereo not drawn) [Compound 79, 4-butyl-3-(4-fluorophenyl)-5-methyl-N-(2-(methylsulfonyl)ethyl)-1-phenyl-4,5-dihydro-1H-pyrazole-5-carboxamide]
IC50 [1]: > 2 µM
IC50 [2]: > 2 µM
IC50 [3]: > 2 µM

CCCCC1C(c2ccc(F)cc2)=NN(c2ccccc2)C1(C)C(=O)NCc1ccc(CN2CCOCC2)cc1 (stereo not drawn) [Compound 80, 4-butyl-3-(4-fluorophenyl)-5-methyl-N-(4-(morpholinomethyl)benzyl)-1-phenyl-4,5-dihydro-1H-pyrazole-5-carboxamide]
IC50 [1]: > 2 µM
IC50 [2]: > 2 µM
IC50 [3]: > 2 µM

CCCCC1C(c2ccc(F)cc2)=NN(c2ccc(F)cc2F)C1(C)C(=O)NCC(=O)OC (stereo not drawn) [Compound 81, methyl 2-(4-butyl-1-(2,4-difluorophenyl)-3-(4-fluorophenyl)-5-methyl-4,5-dihydro-1H-pyrazole-5-carboxamido)acetate]
IC50 [1]: 0.5 to 1 µM
IC50 [2]: < 0.25 µM
IC50 [3]: 0.5 to 1 µM

CCCCC1C(c2ccc(F)cc2)=NN(c2ccc(F)cc2F)C1(C)C(=O)NCC(=O)O (stereo not drawn) [Compound 82, 2-(4-butyl-1-(2,4-difluorophenyl)-3-(4-fluorophenyl)-5-methyl-4,5-dihydro-1H-pyrazole-5-carboxamido)acetic acid]
IC50 [1]: > 2 µM
IC50 [2]: > 2 µM
IC50 [3]: > 2 µM

CCCCC1C(c2ccc(F)cc2)=NN(c2ccc(F)cc2F)C1(C)C(=O)NCCC#N (stereo not drawn) [Compound 83, 4-butyl-N-(2-cyanoethyl)-1-(2,4-difluorophenyl)-3-(4-fluorophenyl)-5-methyl-4,5-dihydro-1H-pyrazole-5-carboxamide]
IC50 [1]: 1 to 2 µM
IC50 [2]: 0.5 to 1 µM
IC50 [3]: 1 to 2 µM

CCCCC1C(c2ccc(F)cc2)=NN(c2ccc(F)cc2F)C1(C)C(=O)NCCO (stereo not drawn) [Compound 84, 4-butyl-1-(2,4-difluorophenyl)-3-(4-fluorophenyl)-N-(2-hydroxyethyl)-5-methyl-4,5-dihydro-1H-pyrazole-5-carboxamide]
IC50 [1]: 1 to 2 µM
IC50 [2]: 0.5 to 1 µM
IC50 [3]: 1 to 2 µM

CC(C)(CO)CCCNC(=O)C1(C)C(c2ccsc2)C(c2ccc(F)cc2)=NN1c1ccc(F)cc1F (stereo not drawn) [Compound 85, 1-(2,4-difluorophenyl)-3-(4-fluorophenyl)-N-(5-hydroxy-4,4-dimethylpentyl)-5-methyl-4-(thiophen-3-yl)-4,5-dihydro-1H-pyrazole-5-carboxamide]
IC50 [1]: < 0.25 µM
IC50 [2]: < 0.25 µM
IC50 [3]: 0.25 to 0.5 µM

COCCNC(=O)C1(C)C(c2ccsc2)C(c2ccc(F)cc2)=NN1c1ccc(F)cc1F (stereo not drawn) [Compound 86, 1-(2,4-difluorophenyl)-3-(4-fluorophenyl)-N-(2-methoxyethyl)-5-methyl-4-(thiophen-3-yl)-4,5-dihydro-1H-pyrazole-5-carboxamide]
IC50 [1]: < 0.25 µM
IC50 [2]: < 0.25 µM
IC50 [3]: < 0.25 µM

CCCCC1(C)C(c2ccc(F)cc2)=NN(c2ccc(F)cc2F)C1(C)C(=O)NCCCC(C)(C)CO (stereo not drawn) [Compound 87, 4-butyl-1-(2,4-difluorophenyl)-3-(4-fluorophenyl)-N-(5-hydroxy-4,4-dimethylpentyl)-4,5-dimethyl-4,5-dihydro-1H-pyrazole-5-carboxamide]
IC50 [1]: > 2 µM
IC50 [2]: > 2 µM
IC50 [3]: > 2 µM

CCCCC1(C)C(c2ccc(F)cc2)=NN(c2ccc(F)cc2F)C1(C)C(=O)NCCOC (stereo not drawn) [Compound 88, 4-butyl-1-(2,4-difluorophenyl)-3-(4-fluorophenyl)-N-(2-methoxyethyl)-4,5-dimethyl-4,5-dihydro-1H-pyrazole-5-carboxamide]
IC50 [1]: > 2 µM
IC50 [2]: > 2 µM
IC50 [3]: > 2 µM

CCCCC1C(c2ccc(F)cc2F)=NN(c2ccc(F)cc2F)C1(C)C(=O)NCCCC(C)(C)CO (stereo not drawn) [Compound 89, 4-butyl-1,3-bis(2,4-difluorophenyl)-N-(5-hydroxy-4,4-dimethylpentyl)-5-methyl-4,5-dihydro-1H-pyrazole-5-carboxamide]
IC50 [1]: 0.5 to 1 µM
IC50 [2]: 0.5 to 1 µM
IC50 [3]: 1 to 2 µM

CCCCC1C(c2ccc(F)cc2F)=NN(c2ccc(F)cc2F)C1(C)C(=O)NCCOC (stereo not drawn) [Compound 90, 4-butyl-1,3-bis(2,4-difluorophenyl)-N-(2-methoxyethyl)-5-methyl-4,5-dihydro-1H-pyrazole-5-carboxamide]
IC50 [1]: 0.5 to 1 µM
IC50 [2]: < 0.25 µM
IC50 [3]: 0.5 to 1 µM

CC(C)(CO)CCCNC(=O)C1(C)C(c2ccco2)C(c2ccc(F)cc2)=NN1c1ccc(F)cc1F (stereo not drawn) [Compound 91, 1-(2,4-difluorophenyl)-3-(4-fluorophenyl)-4-(furan-2-yl)-N-(5-hydroxy-4,4-dimethylpentyl)-5-methyl-4,5-dihydro-1H-pyrazole-5-carboxamide]
IC50 [1]: 0.25 to 0.5 µM
IC50 [2]: < 0.25 µM
IC50 [3]: 0.25 to 0.5 µM

COCCNC(=O)C1(C)C(c2ccco2)C(c2ccc(F)cc2)=NN1c1ccc(F)cc1F (stereo not drawn) [Compound 92, 1-(2,4-difluorophenyl)-3-(4-fluorophenyl)-4-(furan-2-yl)-N-(2-methoxyethyl)-5-methyl-4,5-dihydro-1H-pyrazole-5-carboxamide]
IC50 [1]: < 0.25 µM
IC50 [2]: < 0.25 µM
IC50 [3]: < 0.25 µM

CCCCC1C(c2c(F)cc(F)cc2F)=NN(c2ccc(F)cc2F)C1(C)C(=O)NCCCC(C)(C)CO (stereo not drawn) [Compound 97, 4-butyl-1-(2,4-difluorophenyl)-N-(5-hydroxy-4,4-dimethylpentyl)-5-methyl-3-(2,4,6-trifluorophenyl)-4,5-dihydro-1H-pyrazole-5-carboxamide]
IC50 [1]: 1 to 2 µM
IC50 [2]: 0.5 to 1 µM
IC50 [3]: > 2 µM

CCCCC1C(c2c(F)cc(F)cc2F)=NN(c2ccc(F)cc2F)C1(C)C(=O)NCC(=O)OC (stereo not drawn) [Compound 98, methyl 2-(4-butyl-1-(2,4-difluorophenyl)-5-methyl-3-(2,4,6-trifluorophenyl)-4,5-dihydro-1H-pyrazole-5-carboxamido)acetate]
IC50 [1]: > 2 µM
IC50 [2]: 0.5 to 1 µM
IC50 [3]: > 2 µM

Cc1ccc(C2C(c3ccc(F)cc3)=NN(c3ccc(F)cc3F)C2(C)C(=O)NCCCC(C)(C)CO)s1 (stereo not drawn) [Compound 99, 1-(2,4-difluorophenyl)-3-(4-fluorophenyl)-N-(5-hydroxy-4,4-dimethylpentyl)-5-methyl-4-(5-methylthiophen-2-yl)-4,5-dihydro-1H-pyrazole-5-carboxamide]
IC50 [1]: > 2 µM
IC50 [2]: 1 to 2 µM
IC50 [3]: > 2 µM

COCCNC(=O)C1(C)C(c2ccc(C)s2)C(c2ccc(F)cc2)=NN1c1ccc(F)cc1F (stereo not drawn) [Compound 100, 1-(2,4-difluorophenyl)-3-(4-fluorophenyl)-N-(2-methoxyethyl)-5-methyl-4-(5-methylthiophen-2-yl)-4,5-dihydro-1H-pyrazole-5-carboxamide]
IC50 [1]: 1 to 2 µM
IC50 [2]: 0.25 to 0.5 µM
IC50 [3]: > 2 µM

CC(C)(CO)CCCNC(=O)C1(C)C(c2ccc(Cl)s2)C(c2ccc(F)cc2)=NN1c1ccc(F)cc1F (stereo not drawn) [Compound 101, 4-(5-chlorothiophen-2-yl)-1-(2,4-difluorophenyl)-3-(4-fluorophenyl)-N-(5-hydroxy-4,4-dimethylpentyl)-5-methyl-4,5-dihydro-1H-pyrazole-5-carboxamide]
IC50 [1]: > 2 µM
IC50 [2]: 0.5 to 1 µM
IC50 [3]: > 2 µM

COCCNC(=O)C1(C)C(c2ccc(Cl)s2)C(c2ccc(F)cc2)=NN1c1ccc(F)cc1F (stereo not drawn) [Compound 102, 4-(5-chlorothiophen-2-yl)-1-(2,4-difluorophenyl)-3-(4-fluorophenyl)-N-(2-methoxyethyl)-5-methyl-4,5-dihydro-1H-pyrazole-5-carboxamide]
IC50 [1]: 0.5 to 1 µM
IC50 [2]: 0.25 to 0.5 µM
IC50 [3]: 1 to 2 µM

COC(=O)CNC(=O)C1(C)C(c2cccs2)C(c2ccc(F)cc2)=NN1c1ccc(F)cc1F (stereo not drawn) [Compound 103, methyl 2-(1-(2,4-difluorophenyl)-3-(4-fluorophenyl)-5-methyl-4-(thiophen-2-yl)-4,5-dihydro-1H-pyrazole-5-carboxamido)acetate]
IC50 [1]: 0.5 to 1 µM
IC50 [2]: < 0.25 µM
IC50 [3]: 0.5 to 1 µM

CC(C)(O)CNC(=O)CNC(=O)C1(C)C(c2cccs2)C(c2ccc(F)cc2)=NN1c1ccc(F)cc1F (stereo not drawn) [Compound 104, 1-(2,4-difluorophenyl)-3-(4-fluorophenyl)-N-(2-(2-hydroxy-2-methylpropylamino)-2-oxoethyl)-5-methyl-4-(thiophen-2-yl)-4,5-dihydro-1H-pyrazole-5-carboxamide]
IC50 [1]: 1 to 2 µM
IC50 [2]: 0.5 to 1 µM
IC50 [3]: > 2 µM

CC1(C(=O)NCC(=O)N2CCS(=O)(=O)CC2)C(c2cccs2)C(c2ccc(F)cc2)=NN1c1ccc(F)cc1F (stereo not drawn) [Compound 105, 1-(2,4-difluorophenyl)-3-(4-fluorophenyl)-5-methyl-N-(1,1-dioxo-1-thiomorpholine-2-oxoethyl)-4-(thiophen-2-yl)-4,5-dihydro-1H-pyrazole-5-carboxamide]
IC50 [1]: > 2 µM
IC50 [2]: > 2 µM
IC50 [3]: > 2 µM

CC1(C(=O)NCC(=O)N2CCOCC2)C(c2cccs2)C(c2ccc(F)cc2)=NN1c1ccc(F)cc1F (stereo not drawn) [Compound 106, 1-(2,4-difluorophenyl)-3-(4-fluorophenyl)-5-methyl-N-(2-morpholino-2-oxoethyl)-4-(thiophen-2-yl)-4,5-dihydro-1H-pyrazole-5-carboxamide]
IC50 [1]: > 2 µM
IC50 [2]: > 2 µM
IC50 [3]: > 2 µM
